The test deals with T1, Human GO (Homo sapiens, UniProt Q9UJM8).
T1 construct: purchased Novus Biologicals NBP1-72412
T1 sequence (Q9UJM8 1-370): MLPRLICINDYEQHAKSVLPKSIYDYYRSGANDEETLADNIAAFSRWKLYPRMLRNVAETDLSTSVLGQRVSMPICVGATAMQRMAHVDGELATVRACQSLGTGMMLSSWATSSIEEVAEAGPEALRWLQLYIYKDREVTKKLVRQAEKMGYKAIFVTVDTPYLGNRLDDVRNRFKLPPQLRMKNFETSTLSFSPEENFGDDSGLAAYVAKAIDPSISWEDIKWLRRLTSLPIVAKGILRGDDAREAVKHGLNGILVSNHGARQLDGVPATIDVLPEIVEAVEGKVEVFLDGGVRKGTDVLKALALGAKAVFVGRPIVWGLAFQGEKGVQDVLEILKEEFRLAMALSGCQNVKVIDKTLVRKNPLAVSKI
The experiment in a line: GO enzymatic assay (coupled fluorescence/HRP assay, glycolate substrate). The test is classed as biochemical. In outline:
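Coupled HRP/fluorescence read-out of glycolate oxidation by human GO in 50 mM potassium phosphate buffer (pH 7). Inhibitors added across a concentration range.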

The mark [1] stands for this setting: Table 2, read-out: Range (range of IC50 values calculated from the enzymatic assays).
The mark [2] stands for this setting: Table 3, read-out: Range (range of IC50 values calculated from the enzymatic assays).
Where [3] appears, read: Table 4, read-out: Range (range of IC50 values calculated from the enzymatic assays).
Setting [4] is: Table 5, GO enzymatic assay, read-out: Range (range of IC50 values calculated from the enzymatic assays).

The text below walks through data of patent US11384055B2 (BIOMARIN PHARMACEUTICAL INC., priority 2017, dated 2022).

Read-outs that look alike come from different tables or passages of the source.

By IC50 is commonly meant the midpoint of a concentration-inhibition curve. Consider `O=C(O)c1[nH]nnc1OC1CCN(c2cc(Cl)ccc2OC(F)(F)F)CC1` [Compound 367, 4-((1-(5-chloro-2-(trifluoromethoxy)phenyl)piperidin-4-yl)oxy)-1H-1,2,3-triazole-5-carboxylic acid 2,2,2-trifluoroacetate], for which, under setting [1], the IC50 was < 100 nM.
`O=C(O)c1[nH]nnc1O[C@H]1CC[C@@H](c2ccc(N3CCC(F)(F)CC3)cc2)CC1` [Compound 368, 4-(((cis)-4-(4-(4,4-difluoropiperidin-1-yl)phenyl)cyclohexyl)oxy)-1H-1,2,3-triazole-5-carboxylic acid 2,2,2-trifluoroacetate]: under setting [1], the IC50 was < 100 nM.
The same measure, in the same setting: for `O=C(O)c1[nH]nnc1OCC1C2CN(c3ccc(Cl)c(Cl)c3)CC12` (stereo not shown) [Compound 369, 4-((3-(3,4-dichlorophenyl)-3-azabicyclo[3.1.0]hexan-6-yl)methoxy)-1H-1,2,3-triazole-5-carboxylic acid] the value was < 100 nM; for `CCN(CC)C(=O)OCOC(=O)c1[nH]nnc1O[C@H]1CC[C@H](c2ccc(OC(F)(F)F)cc2)CC1` [Compound 370, ((diethylcarbamoyl)oxy)methyl 4-(((trans)-4-(4-(trifluoromethoxy)phenyl)cyclohexyl)oxy)-1H-1,2,3-triazole-5-carboxylate], > 10000 nM.
For the compound `O=C(O)c1[nH]nnc1CCN(Cc1ccc(Cl)cc1)Cc1ccc(Cl)cc1` [Compound 372, 4-(2-(bis(4-chlorobenzyl)amino)ethyl)-1H-1,2,3-triazole-5-carboxylic acid 2,2,2-trifluoroacetate], under setting [2], the IC50 was 100 to 1000 nM.
`O=C(O)c1[nH]nnc1SCC1C2CN(c3ccc(Cl)c(Cl)c3)CC12` (stereo not shown) [Compound 373, 4-(((3-(3,4-dichlorophenyl)-3-azabicyclo[3.1.0]hexan-6-yl)methyl)thio)-1H-1,2,3-triazole-5-carboxylic acid]: under setting [1], the IC50 was < 100 nM.
As to `O=C(O)c1[nH]nnc1CCN(Cc1ccc(Cl)cc1)Cc1ccc(-c2ccc(OC(F)(F)F)cc2)cc1` [Compound 374, 4-(2-((4-chlorobenzyl)((4′-(trifluoromethoxy)-[1,1′-biphenyl]-4-yl)methyl)amino)ethyl)-1H-1,2,3-triazole-5-carboxylic acid 2,2,2-trifluoroacetate], under setting [2], the IC50 was 100 to 1000 nM.
`O=C(O)c1[nH]nnc1Oc1cccc(OC2CCCC2)c1` [Compound 375, 4-(3-(cyclopentyloxy)phenoxy)-1H-1,2,3-triazole-5-carboxylic acid 2,2,2-trifluoroacetate]: the IC50 under setting [1] is < 100 nM.
Turning to `O=C(O)c1[nH]nnc1OC(c1ccccc1)C(O)c1ccc(Cl)cc1` (stereo not shown) [Compound 378, 4-(2-(4-chlorophenyl)-2-hydroxy-1-phenylethoxy)-1H-1,2,3-triazole-5-carboxylic acid], the IC50 reads like this: under setting [3], 100 to 1000 nM; under setting [4], 100 to 1000 nM.
As for `O=C(O)c1[nH]nnc1OC(Cc1ccc(Cl)cc1)Cc1ccc(-c2ccc(OC(F)(F)F)cc2)cc1` (stereo not shown) [Compound 385, 4-((1-(4-chlorophenyl)-3-(4′-(trifluoromethoxy)-[1,1′-biphenyl]-4-yl)propan-2-yl)oxy)-1H-1,2,3-triazole-5-carboxylic acid 2,2,2-trifluoroacetate], the IC50 under setting [4] is 100 to 1000 nM.
For the compound `N#Cc1ccc(-c2ccc(Sc3nn[nH]c3C(=O)O)cc2)cc1` [Compound 389, 4-((4′-cyano-[1,1′-biphenyl]-4-yl)thio)-1H-1,2,3-triazole-5-carboxylic acid 2,2,2-trifluoroacetate], under setting [3], the IC50 is < 100 nM.
In the case of `CC(OC(=O)c1[nH]nnc1O[C@H]1CC[C@H](c2ccc(OC(F)(F)F)cc2)CC1)OC(=O)C1CCCCC1` (stereo partly drawn) [Compound 391, 1-((cyclohexanecarbonyl)oxy)ethyl 4-(((trans)-4-(4-(trifluoromethoxy)phenyl)cyclohexyl)oxy)-1H-1,2,3-triazole-5-carboxylate], the IC50 under setting [3] is 100 to 1000 nM.
Take `CCC(OC(=O)c1[nH]nnc1O[C@H]1CC[C@H](c2ccc(OC(F)(F)F)cc2)CC1)OC(=O)C1CCCCC1` (stereo partly drawn) [Compound 392, 1-((cyclohexanecarbonyl)oxy)propyl 4-(((trans)-4-(4-(trifluoromethoxy)phenyl)cyclohexyl)oxy)-1H-1,2,3-triazole-5-carboxylate]: the IC50 under setting [3] was 100 to 1000 nM.
The same measure, in the same setting: the figure for `O=C(O)c1[nH]nnc1O[C@H]1CC[C@H](c2cc(Cl)ccc2OC(F)(F)F)CC1` [Compound 393, 4-(((trans)-4-(5-chloro-2-(trifluoromethoxy)phenyl)cyclohexyl)oxy)-1H-1,2,3-triazole-5-carboxylic acid] is < 100 nM; for `O=C(O)c1[nH]nnc1Oc1ccc(F)c(OCc2ccc(OC(F)(F)F)cc2)c1` [Compound 400, 4-(4-fluoro-3-((4-(trifluoromethoxy)benzyl)oxy)phenoxy)-1H-1,2,3-triazole-5-carboxylic acid 2,2,2-trifluoroacetate] it is < 100 nM.
Regarding `CS(=O)(=O)c1ccc(-c2ccc(Oc3[nH]nnc3C(=O)O)cc2)cc1` [Compound 401, 4-((4′-(methylsulfonyl)-[1,1′-biphenyl]-4-yl)oxy)-1H-1,2,3-triazole-5-carboxylic acid 2,2,2-trifluoroacetate], the IC50 was < 100 nM.
Turning to `O=C(O)c1[nH]nnc1SC1CCN(c2cc(OC(F)(F)F)ccc2Cl)CC1` [Compound 402, 4-((1-(2-chloro-5-(trifluoromethoxy)phenyl)piperidin-4-yl)thio)-1H-1,2,3-triazole-5-carboxylic acid], the 50% inhibitory concentration (IC50) under setting [3] was < 100 nM.
On the same count and under the same terms, for `O=C(O)c1[nH]nnc1Oc1ccc(-c2ccc(N3CCCCC3)cc2)c(Cl)c1` [Compound 406, 4-((2-chloro-4′-(piperidin-1-yl)-[1,1′-biphenyl]-4-yl)oxy)-1H-1,2,3-triazole-5-carboxylic acid 2,2,2-trifluoroacetate] the value was < 100 nM.
On the same count and under the same terms, the figure for `O=C(O)c1[nH]nnc1Oc1ccc(-c2ccc(N3CCCCC3)cc2Cl)cc1` [Compound 407, 4-((2′-chloro-4′-(piperidin-1-yl)-[1,1′-biphenyl]-4-yl)oxy)-1H-1,2,3-triazole-5-carboxylic acid] is < 100 nM; for `O=C(O)c1[nH]nnc1Oc1ccc(Cl)c(OCc2ccc(OC(F)(F)F)cc2)c1` [Compound 408, 4-(4-chloro-3-((4-(trifluoromethoxy)benzyl)oxy)phenoxy)-1H-1,2,3-triazole-5-carboxylic acid] it is < 100 nM; for `NS(=O)(=O)c1ccc(-c2ccc(Oc3nn[nH]c3C(=O)O)cc2)cc1` [Compound 413, 4-((4′-sulfamoyl-[1,1′-biphenyl]-4-yl)oxy)-1H-1,2,3-triazole-5-carboxylic acid] it is < 100 nM.
Turning to `O=C(O)c1[nH]nnc1Oc1ccc(Cl)c(OCc2ccc(C(F)(F)F)cc2)c1` [Compound 415, 4-(4-chloro-3-((4-(trifluoromethyl)benzyl)oxy)phenoxy)-1H-1,2,3-triazole-5-carboxylic acid], the IC50 under setting [3] was < 100 nM.
For the compound `N#Cc1ccc(Oc2nn[nH]c2C(=O)O)cc1OCc1ccc(OC(F)(F)F)cc1` [Compound 421, 4-(4-cyano-3-((4-(trifluoromethoxy)benzyl)oxy)phenoxy)-1H-1,2,3-triazole-5-carboxylic acid], the IC50 under setting [3] is < 100 nM.
With `O=C(O)c1[nH]nnc1O[C@H]1C[C@@H]2CN(c3ccc(Cl)c(Cl)c3)C[C@@H]2C1` [Compound 427, 4-(((3aR,5s,6aS)-2-(3,4-dichlorophenyl)octahydrocyclopenta[c]pyrrol-5-yl)oxy)-1H-1,2,3-triazole-5-carboxylic acid], under setting [3], the IC50 is < 100 nM.
